According to patent publication US20170333390A1, “PHYTOCHEMICAL COMPOSITIONS INCLUDING SESAMIN FOR ANTI-INFLAMMATORY, ANTI-CYTOKINE STORM, AND OTHER USES” (CHIANG MAI UNIVERSITY, priority 2009, published 2017):

System: IL-1 released by LPS induced peripheral blood mononuclear cells (PBMCs)
Experiment: Quantity of IL-1 released by LPS induced PBMCs (ELISA)
Type: cell-based
Conditions: LPS 20 ng/ml
Procedure: Experiments were conducted to evaluate the effect of particular phytochemical compositions provided by the present disclosure on quantity of IL-1 released by specified cells found within a body of a living organism. Cells used for the experiment described in this example are LPS induced peripheral blood mononuclear cells (PBMCs). It is understood by a person of ordinary skill in the art that the PBMCs may be substituted for other immune cells found within the body. It is also understood by a person having ordinary skill in the art that other inducing substances or chemicals besides LPS, for example viral antigens, may also be used for inducing the PBMCs.
To conduct the experiments of example two, PBMCs were isolated and prepared using isolation techniques or methods known to a person of ordinary skill in the art. An exemplary method or technique is the differential density gradient centrifugation technique, the steps or process steps of which are known to a person of ordinary skill in the art. In addition, LPS can be obtained from a commercial source, for example Sigma-Aldrich Co.
The PBMCs are cultured in 10% fetal calf serum in RPMI1640 medium. Seven cultures of PBMCs, i.e. culture 1 to culture 7, were prepared. The contents of each of cultures 1 to 7 are as follows: • (i) Culture 1: First control culture. Includes a predetermined volume of PBMCs (1×10^5 PBMCs/culture); • (ii) Culture 2: Second control culture. […]
After a predetermined time period, quantity of IL-1 in each of cultures 1 to 7 was quantified using the ELISA technique (e.g., Biotrak Easy ELISA Aersham). The quantity of IL-1 detected by the ELISA technique in each of cultures 1 to 7 reflects the quantity of IL-1 released by the PBMCs of that culture.

SMILES: c1cc2c(cc1[C@H]1OC[C@H]3[C@@H]1CO[C@@H]3c1ccc3c(c1)OCO3)OCO2 [sesamin]
- decrease in quantity of IL-1 (0.1 uM sesamin (culture 3), compared to control culture 1, 24 hours): approximately 5%
- decrease in quantity of IL-1 (0.5 uM sesamin (culture 4), compared to control culture 1, 24 hours): approximately 5%
- decrease in quantity of IL-1 (10 uM sesamin (culture 7), compared to control culture 2, 24 hours): approximately 35%
